# In ChEMBL document CHEMBL1201862, “PubChem BioAssay data set” (2004):
#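 A five-concentration, 48-hour dose response in 96-well plates underlies each endpoint, interpolated linearly between surrounding concentrations. GI50 is the concentration that inhibits growth by half.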 Active and inactive are the calls of the source. Cut-off read from the data, not from the text of the source: active = GI50 up to about 1.1 µM and inactive = higher.
# Key:
# Assay in all cases: DTP human tumour cell line panel, 48 h
# NCI/ADR-RES = test system: NCI/ADR-RES
# T47D = test system: T47D
# SNB-75 = test system: SNB-75
# SR = test system: SR
# MOLT-4 = test system: MOLT-4
# DU-145 = test system: DU-145
# MDA-MB-435 = test system: MDA-MB-435
# RXF 393 = test system: RXF 393
# CAKI-1 = test system: CAKI-1
# SF-539 = test system: SF-539
# NCI-H23 = test system: NCI-H23
# BT-549 = test system: BT-549
# 786-0 = test system: 786-0
# SK-MEL-28 = test system: SK-MEL-28
# SK-MEL-5 = test system: SK-MEL-5
# KM12 = test system: KM12
# SK-MEL-2 = test system: SK-MEL-2
# SF-268 = test system: SF-268
# OVCAR-3 = test system: OVCAR-3
# M14 = test system: M14
# SW-620 = test system: SW-620
# EKVX = test system: EKVX
# NCI-H226 = test system: NCI-H226
# HCC 2998 = test system: HCC 2998
# RPMI-8226 = test system: RPMI-8226
# UO-31 = test system: UO-31
# A549 = test system: A549
# SK-OV-3 = test system: SK-OV-3
# ACHN = test system: ACHN
# OVCAR-8 = test system: OVCAR-8
# PC-3 = test system: PC-3
# U-251 = test system: U-251
# MCF7 = test system: MCF7
# COLO 205 = test system: COLO 205
# NCI-H522 = test system: NCI-H522
# TK-10 = test system: TK-10
# UACC-257 = test system: UACC-257
# SNB-19 = test system: SNB-19
# HCT-116 = test system: HCT-116
# LOX IMVI = test system: LOX IMVI
# HCT-15 = test system: HCT-15
# SN12C = test system: SN12C
# OVCAR-4 = test system: OVCAR-4
# Malme-3M = test system: Malme-3M
# HOP-62 = test system: HOP-62
# HT-29 = test system: HT-29
# UACC-62 = test system: UACC-62
# Hs-578T = test system: Hs-578T
# OVCAR-5 = test system: OVCAR-5
# MDA-N = test system: MDA-N
# SF-295 = test system: SF-295
# IGROV-1 = test system: IGROV-1
# K562 = test system: K562
# CCRF-CEM = test system: CCRF-CEM
# HL-60 = test system: HL-60
# A498 = test system: A498
# NCI-H460 = test system: NCI-H460
# HOP-92 = test system: HOP-92
smiles,measurement,setting,value
CCOC(=O)C1(F)S(=O)(=O)OCCOS1(=O)=O,GI50,NCI/ADR-RES,> 100 µM (inactive)
same,GI50,T47D,> 100 µM (inactive)
same,GI50,SNB-75,> 100 µM (inactive)
same,GI50,SR,> 100 µM (inactive)
same,GI50,MOLT-4,> 100 µM (inactive)
same,GI50,DU-145,> 100 µM (inactive)
same,GI50,MDA-MB-435,> 100 µM (inactive)
same,GI50,RXF 393,> 100 µM (inactive)
same,GI50,CAKI-1,> 100 µM (inactive)
same,GI50,SF-539,> 100 µM (inactive)
same,GI50,NCI-H23,> 100 µM (inactive)
same,GI50,BT-549,> 100 µM (inactive)
same,GI50,786-0,> 100 µM (inactive)
same,GI50,SK-MEL-28,> 100 µM (inactive)
same,GI50,SK-MEL-5,> 100 µM (inactive)
same,GI50,KM12,> 100 µM (inactive)
same,GI50,SK-MEL-2,> 100 µM (inactive)
same,GI50,SF-268,> 100 µM (inactive)
same,GI50,OVCAR-3,> 100 µM (inactive)
same,GI50,M14,> 100 µM (inactive)
same,GI50,SW-620,> 100 µM (inactive)
same,GI50,EKVX,> 100 µM (inactive)
same,GI50,NCI-H226,> 100 µM (inactive)
same,GI50,HCC 2998,> 100 µM (inactive)
same,GI50,RPMI-8226,> 100 µM (inactive)
same,GI50,UO-31,> 100 µM (inactive)
same,GI50,A549,> 100 µM (inactive)
same,GI50,SK-OV-3,> 100 µM (inactive)
same,GI50,ACHN,> 100 µM (inactive)
same,GI50,OVCAR-8,> 100 µM (inactive)
same,GI50,PC-3,> 100 µM (inactive)
same,GI50,U-251,> 100 µM (inactive)
same,GI50,MCF7,> 100 µM (inactive)
same,GI50,COLO 205,> 100 µM (inactive)
same,GI50,NCI-H522,> 100 µM (inactive)
same,GI50,TK-10,> 100 µM (inactive)
same,GI50,UACC-257,> 100 µM (inactive)
same,GI50,SNB-19,> 100 µM (inactive)
same,GI50,HCT-116,> 100 µM (inactive)
same,GI50,LOX IMVI,> 100 µM (inactive)
same,GI50,HCT-15,> 100 µM
same,GI50,SN12C,> 100 µM (inactive)
same,GI50,OVCAR-4,> 100 µM (inactive)
same,GI50,Malme-3M,> 100 µM (inactive)
same,GI50,HOP-62,> 100 µM (inactive)
same,GI50,HT-29,> 100 µM (inactive)
same,GI50,UACC-62,> 100 µM (inactive)
same,GI50,Hs-578T,93.3 µM (inactive)
same,GI50,OVCAR-5,> 100 µM (inactive)
same,GI50,MDA-N,> 100 µM (inactive)
same,GI50,SF-295,> 100 µM (inactive)
O=C(O)c1ccccc1.[Ag],GI50,NCI/ADR-RES,34.6 µM (inactive)
same,GI50,IGROV-1,15.7 µM (inactive)
same,GI50,T47D,2.46 µM (inactive)
same,GI50,SNB-75,3.36 µM (inactive)
same,GI50,SR,5.12 µM (inactive)
same,GI50,MOLT-4,2.55 µM (inactive)
same,GI50,DU-145,17.5 µM (inactive)
same,GI50,MDA-MB-435,16.8 µM (inactive)
same,GI50,K562,3.2 µM (inactive)
same,GI50,RXF 393,18.2 µM (inactive)
same,GI50,CAKI-1,5.5 µM (inactive)
same,GI50,SF-539,21.3 µM (inactive)
same,GI50,NCI-H23,22.6 µM (inactive)
same,GI50,BT-549,27.2 µM (inactive)
same,GI50,786-0,17.3 µM (inactive)
same,GI50,SK-MEL-28,16.9 µM (inactive)
same,GI50,SK-MEL-5,4.73 µM (inactive)
same,GI50,KM12,19.5 µM (inactive)
same,GI50,CCRF-CEM,1.99 µM (inactive)
same,GI50,SK-MEL-2,14.4 µM (inactive)
same,GI50,SF-268,21.8 µM (inactive)
same,GI50,OVCAR-3,12.9 µM (inactive)
same,GI50,M14,19.5 µM (inactive)
same,GI50,EKVX,26.6 µM (inactive)
same,GI50,NCI-H226,> 100 µM (inactive)
same,GI50,HCC 2998,19.2 µM (inactive)
same,GI50,RPMI-8226,2.23 µM (inactive)
same,GI50,HL-60,3.98 µM (inactive)
same,GI50,UO-31,2.13 µM (inactive)
same,GI50,A549,6.81 µM (inactive)
same,GI50,SK-OV-3,17.4 µM (inactive)
same,GI50,ACHN,6.47 µM (inactive)
same,GI50,OVCAR-8,28.1 µM (inactive)
same,GI50,PC-3,15.8 µM (inactive)
same,GI50,U-251,18.5 µM (inactive)
same,GI50,MCF7,13.3 µM (inactive)
same,GI50,COLO 205,1.87 µM (inactive)
same,GI50,NCI-H522,1.5 µM (inactive)
same,GI50,A498,19.2 µM (inactive)
same,GI50,TK-10,7.11 µM (inactive)
same,GI50,UACC-257,5.11 µM (inactive)
same,GI50,SNB-19,39.4 µM (inactive)
same,GI50,HCT-116,6.32 µM (inactive)
same,GI50,LOX IMVI,11.1 µM (inactive)
same,GI50,HCT-15,21.6 µM
same,GI50,SN12C,23 µM (inactive)
same,GI50,OVCAR-4,14.7 µM (inactive)
same,GI50,Malme-3M,1.7 µM (inactive)
same,GI50,NCI-H460,11.1 µM (inactive)
same,GI50,HOP-62,21.3 µM (inactive)
same,GI50,HT-29,20 µM (inactive)
same,GI50,UACC-62,18.1 µM (inactive)
same,GI50,Hs-578T,28.2 µM (inactive)
same,GI50,HOP-92,21.7 µM (inactive)
same,GI50,OVCAR-5,22.9 µM (inactive)
same,GI50,MDA-N,7.91 µM (inactive)
same,GI50,SF-295,64 µM (inactive)
